Some test systems named below: NCI-H460 lung; 786-0 renal; OVCAR-8 ovarian; NCI-H23 lung; RXF 393 renal; MDA-MB-435; K-562 leukemia; MALME-3M melanoma; MCF7 breast; UACC-257 melanoma.
Holding throughout (experiment): growth of human tumour cells (NCI), 48 h

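Briefly, cells in 96-well plates were exposed to five compound concentrations for 48 h, and endpoints were estimated by linear interpolation. GI50: concentration for 50% inhibition of growth. TGI: total growth inhibition.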 Where only a bound is given, the exact number is not on record here.

Consider 13 compounds from PubChem BioAssay (NCI).

On to `CCN(Cc1ccc(Cl)cc1)c1ccc(CO)c(Cl)c1`, for which the GI50 with NCI-H460 lung is 0.348 µM; in the assay with 786-0 renal it was 2.19 µM; in the assay with OVCAR-8 ovarian it was 3.62 µM; with NCI-H23 lung it was 3.23 µM; in the assay with RXF 393 renal, 2.07 µM; in the assay with MDA-MB-435, 11 µM. The GI50 is 1.87 µM with K-562 leukemia, 12.8 µM with MALME-3M melanoma, 0.292 µM in the assay on MCF7 breast and 0.145 µM with UACC-257 melanoma. Also, the TGI is 10.9 µM with NCI-H460 lung; 13.3 µM in the assay on 786-0 renal; 21 µM in the assay on OVCAR-8 ovarian; 22.8 µM with NCI-H23 lung; 13.3 µM in the assay with RXF 393 renal; 24.5 µM with MDA-MB-435. The TGI was above 45.5 µM with K-562 leukemia, 28.5 µM in the assay with MALME-3M melanoma, 6.43 µM in the assay on MCF7 breast and 0.512 µM with UACC-257 melanoma.
With `O.O.[NH-]C1(C(=O)O)CCCC1.[NH-]C1(C(=O)O)CCCC1.[Ni+2]`, the TGI with NCI-H460 lung, with 786-0 renal, with OVCAR-8 ovarian, in the assay with NCI-H23 lung, in the assay on RXF 393 renal and in the assay on MDA-MB-435 was above 100 µM each time. In addition, the TGI in the assay with K-562 leukemia, in the assay on MALME-3M melanoma, in the assay with MCF7 breast and in the assay on UACC-257 melanoma was above 100 µM throughout. Besides, the GI50 in the assay on 786-0 renal and in the assay on MDA-MB-435 was above 100 µM in each case.
As for `CN(Cc1ccccc1)C(=NC#N)N(Cc1ccccc1)Cc1ccccc1`, the TGI with NCI-H460 lung was above 90.1 µM; in the assay with 786-0 renal, 97.6 µM; with OVCAR-8 ovarian, above 100 µM; with NCI-H23 lung, 64 µM; with RXF 393 renal, 95.9 µM; with MDA-MB-435, 33.7 µM. The TGI in the assay with K-562 leukemia was above 100 µM; in the assay on MALME-3M melanoma, 67.1 µM; with MCF7 breast, 93.2 µM; in the assay with UACC-257 melanoma it was 54.4 µM.
In the case of `O=c1[nH]c(=O)c2cn[nH]c2[nH]1`, the GI50 in the assay with NCI-H460 lung, with 786-0 renal, with OVCAR-8 ovarian, in the assay on NCI-H23 lung, in the assay with RXF 393 renal and in the assay on MDA-MB-435 was above 100 µM throughout. For the same compound, the GI50 in the assay on K-562 leukemia, with MALME-3M melanoma, in the assay with MCF7 breast and in the assay with UACC-257 melanoma was above 100 µM each time. Also, the TGI with NCI-H460 lung, in the assay on 786-0 renal, in the assay on OVCAR-8 ovarian, with NCI-H23 lung, with RXF 393 renal and in the assay on MDA-MB-435 was above 100 µM in each case. The TGI with K-562 leukemia, in the assay with MALME-3M melanoma, with MCF7 breast and in the assay with UACC-257 melanoma was above 100 µM in each case.
In the case of `C=C(C)[C@@H]1CC[C@]2(C)CC[C@]3(C)[C@H](CC[C@@H]4[C@@]5(C)CC[C@H](O)C(C)(C)[C@@H]5CC[C@]43C)[C@@H]12`, the TGI in the assay with NCI-H460 lung was above 100 µM; in the assay on 786-0 renal it was above 63.8 µM; with OVCAR-8 ovarian, above 64.2 µM; in the assay with NCI-H23 lung it was above 100 µM; with RXF 393 renal, 28.7 µM; with MDA-MB-435, 40.4 µM. For the same compound, the TGI with K-562 leukemia was above 68.8 µM; in the assay on MALME-3M melanoma, above 100 µM; in the assay on MCF7 breast it was 55.2 µM; with UACC-257 melanoma, above 80.8 µM.
Take `C=C1C(=O)O[C@H]2[C@H]1CC/C(COC(=O)CSCSCC(=O)OC/C1=C/CC[C@@]3(C)O[C@H]3[C@H]3OC(=O)C(=C)[C@@H]3CC1)=C\CC[C@@]1(C)O[C@@H]21`: the GI50 in the assay with NCI-H460 lung was 2.1 µM; with 786-0 renal it was 1.41 µM; in the assay on OVCAR-8 ovarian, 1.93 µM; in the assay on NCI-H23 lung, 1.83 µM; with RXF 393 renal it was 1.23 µM; in the assay with MDA-MB-435, 2 µM. Besides, the GI50 is 0.554 µM in the assay on K-562 leukemia, 1.58 µM in the assay on MALME-3M melanoma, 0.642 µM with MCF7 breast and 1.89 µM in the assay with UACC-257 melanoma. The TGI in the assay on NCI-H460 lung is 4.86 µM; in the assay on 786-0 renal, 2.89 µM; in the assay with OVCAR-8 ovarian it was 4.96 µM; in the assay on NCI-H23 lung it was 4.01 µM; in the assay with RXF 393 renal, 2.83 µM; in the assay with MDA-MB-435, 4.56 µM. In addition, the TGI in the assay on K-562 leukemia is above 100 µM; in the assay on MALME-3M melanoma, 3.29 µM; in the assay with MCF7 breast, 2.25 µM; with UACC-257 melanoma it was 4.67 µM.
As to `CCCCON(OC(=O)c1ccc2ccccc2c1)C(=O)c1ccccc1`, the GI50 is above 100 µM in the assay on NCI-H460 lung; 73.4 µM in the assay on 786-0 renal; above 100 µM in the assay on OVCAR-8 ovarian; 90.2 µM in the assay with NCI-H23 lung; above 100 µM in the assay on RXF 393 renal; above 100 µM in the assay with MDA-MB-435. Further, the GI50 is 41.7 µM with K-562 leukemia, above 100 µM with MALME-3M melanoma, 60.1 µM in the assay with MCF7 breast and above 100 µM with UACC-257 melanoma. The TGI in the assay on NCI-H460 lung, in the assay on 786-0 renal, in the assay on OVCAR-8 ovarian, in the assay on NCI-H23 lung, with RXF 393 renal and with MDA-MB-435 was above 100 µM throughout. Also, the TGI in the assay on K-562 leukemia, in the assay with MALME-3M melanoma, with MCF7 breast and in the assay with UACC-257 melanoma was above 100 µM each time.
As to `CNC(=O)Nc1nc2ccc([N+](=O)[O-])cc2[nH]1`, the TGI with NCI-H460 lung, with 786-0 renal, with OVCAR-8 ovarian, in the assay on NCI-H23 lung, in the assay with RXF 393 renal and in the assay on MDA-MB-435 was above 100 µM each time. The TGI with K-562 leukemia, with MALME-3M melanoma, in the assay on MCF7 breast and in the assay with UACC-257 melanoma was above 100 µM throughout.
Turning to `OC(Cc1ccncc1)C(Cl)(Cl)Cl` (configuration not stated), the GI50 with NCI-H460 lung is above 100 µM; in the assay on 786-0 renal it was above 100 µM; in the assay on OVCAR-8 ovarian, above 100 µM; in the assay on NCI-H23 lung it was 76.3 µM; in the assay on RXF 393 renal it was above 100 µM; with MDA-MB-435, above 100 µM. Besides, the GI50 in the assay with K-562 leukemia, in the assay with MALME-3M melanoma, with MCF7 breast and in the assay with UACC-257 melanoma was above 100 µM throughout. For the same compound, the TGI in the assay on NCI-H460 lung, with 786-0 renal, in the assay on OVCAR-8 ovarian, in the assay on NCI-H23 lung, in the assay with RXF 393 renal and with MDA-MB-435 was above 100 µM in each case. Moreover, the TGI in the assay on K-562 leukemia, in the assay with MALME-3M melanoma, with MCF7 breast and in the assay on UACC-257 melanoma was above 100 µM each time.
With `CCOc1cccc(/C=N/N=C2\C(=O)Nc3c(Cl)cc(Cl)cc32)c1O`, the TGI in the assay with NCI-H460 lung, in the assay with 786-0 renal, in the assay on OVCAR-8 ovarian, with NCI-H23 lung, in the assay on RXF 393 renal and with MDA-MB-435 was above 100 µM in each case. Besides, the TGI in the assay on K-562 leukemia, with MALME-3M melanoma, with MCF7 breast and in the assay with UACC-257 melanoma was above 100 µM throughout.
On to `Oc1c(-c2nnc(-c3ccccc3Cl)o2)sc2nnc(-c3ccccc3)c(-c3ccccc3)c12`, for which the GI50 is 1.73 µM in the assay with NCI-H460 lung; 7.22 µM in the assay with 786-0 renal; 3.72 µM in the assay with OVCAR-8 ovarian; 4.87 µM in the assay with NCI-H23 lung; 24.6 µM in the assay with RXF 393 renal; 4.26 µM with MDA-MB-435. Moreover, the GI50 in the assay on K-562 leukemia is 3.28 µM; in the assay on MALME-3M melanoma, 4.22 µM; in the assay on MCF7 breast, 3.84 µM; in the assay on UACC-257 melanoma, 8.09 µM. The TGI with NCI-H460 lung was 15.3 µM; with 786-0 renal it was above 100 µM; with OVCAR-8 ovarian, above 100 µM; in the assay with NCI-H23 lung it was above 100 µM; with RXF 393 renal, above 100 µM; with MDA-MB-435 it was above 100 µM. In addition, the TGI with K-562 leukemia is above 100 µM; in the assay on MALME-3M melanoma, 33.1 µM; in the assay on MCF7 breast, above 100 µM; in the assay with UACC-257 melanoma it was 62.7 µM.
Take `COC(=O)c1ccc(-c2nc3cc(Cl)c(Cl)cc3nc2C#N)cc1`: the GI50 in the assay with NCI-H460 lung, in the assay with 786-0 renal, in the assay with OVCAR-8 ovarian, in the assay on NCI-H23 lung, in the assay on RXF 393 renal and with MDA-MB-435 was above 100 µM in each case. Besides, the GI50 in the assay with K-562 leukemia, in the assay on MALME-3M melanoma, in the assay on MCF7 breast and in the assay with UACC-257 melanoma was above 100 µM each time. Also, the TGI in the assay with NCI-H460 lung, in the assay on 786-0 renal, in the assay on OVCAR-8 ovarian, with NCI-H23 lung, with RXF 393 renal and with MDA-MB-435 was above 100 µM throughout. For the same compound, the TGI in the assay with K-562 leukemia, with MALME-3M melanoma, with MCF7 breast and in the assay with UACC-257 melanoma was above 100 µM in each case.
For `O=c1[nH]nnc2c1ncn2C1OC(CO)C(O)C1O` (configuration not stated), the GI50 was 2.82 µM with NCI-H460 lung; 24 µM with 786-0 renal; 4.73 µM in the assay with OVCAR-8 ovarian; 14.5 µM with NCI-H23 lung; 14.1 µM in the assay on RXF 393 renal; 14.2 µM with MDA-MB-435. The GI50 in the assay on K-562 leukemia is 2.26 µM; in the assay with MALME-3M melanoma, 7.25 µM; in the assay with MCF7 breast, 17.3 µM; in the assay with UACC-257 melanoma, 14.1 µM. Also, the TGI in the assay with NCI-H460 lung, in the assay with 786-0 renal, in the assay on OVCAR-8 ovarian, in the assay on NCI-H23 lung, in the assay on RXF 393 renal and in the assay on MDA-MB-435 was above 100 µM in each case. Also, the TGI in the assay with K-562 leukemia, in the assay on MALME-3M melanoma, in the assay on MCF7 breast and in the assay with UACC-257 melanoma was above 100 µM in each case.
